Measurements taken from patent US20160199380A1, “Sigma Ligands For the Prevention or Treatment of Pain Induced by Chemotherapy” (Laboratorios del Dr. Esteve, S.A., priority 2009, published 2016).

Columns and labels:
[1] = tested on: Oxaliplatin-induced cold allodynia; experiment: Acetone test, chronic model of oxaliplatin-induced neuropathy in rats; format: in vivo, Sprague-Dawley rats; settings: for decrease in the reaction time of paw withdrawal as compared to the HPMC/distilled water-treated group: oxaliplatin 3 mg/kg i.p. 3 times a week + 0.5% HPMC; for reaction time of paw withdrawal (acetone test), curative treatment: throughout the study
Protocol: Sixty male Sprague-Dawley rats (CERJ, France), weighing 136-169 g at the beginning of the experimental phase (first administration of compounds on D-2), were used. Rats were housed in a temperature (19.5° C.-24.5° C.) and relative humidity (45%-65%) controlled room with a 12 h—light/dark cycle, with ad libitum access to standard pelleted laboratory chow and water throughout the study.
All treatments were administered in a coded order when it is possible.
Animals were tested 2 times during treatment with compound 63 (i.e. D8 and D15) and once 24 h after completion of treatment with compound 63 (i.e. D16).
During the testing days (i.e. D8, D15), compound 63 and 0.5% HPMC were administered 30 min before the test.
Cold allodynia was assessed by measuring the responses to thermal non-nocic ptive stimulation (acetone test) on D8, D15 and D16.
Cold allodynia was assessed using the acetone test. In this test, latency of hindpaw withdrawal was measured after application of a drop of acetone to the plantar surface of both hindpaws (reaction time) and the intensity of tne response was scored (cold score).
Reaction time to the cooling effect of acetone was measured within 20 sec (cut-off) after acetone application. Responses to acetone were also graded to the following 4-point scale: 0 (no response); 1 (quick withdrawal, flick of the paw); 2 (prolonged withdrawal or marked flicking of the paw); 3 (repeated flicking of the paw with licking or biting).
For each experimental group, the results were expressed as: • The reaction time defined as the time expressed in sec required to elicit paw reaction (mean of 6 measures for each rat together±SEM). • The cumulative cold score defined as the sum of the 6 scores for each rat together±SEM. The minimum score being 0 (no response to any of the 6 trials) and the maximum possible score being 18 (repeated flicking and licking or biting of paws on each of the six trials).
Statistical significance between the treated groups and the vehicle-treated group was determined by a Two-way Repeated Measures ANOVA on Ranks followed, when the F value is significant, by an appropriate post-hoc comparison (Bonferroni's test sing SigmaStet software. The significance level was p<0.05. Statistical analyses were done using SigmaStet software.

[2] = tested on: paclitaxel-induced cold allodynia; experiment: Acetone test, paclitaxel-induced cold allodynia in mice; format: in vivo, CD-1 mice
Protocol: (§1) Experiments were performed in CD-1 mice (Charles River, U.S.A.) with at least n=10/experimental group. […] Control animals received the same volume of solvent (a mixture of ethanol and cremophor EL)
(§2) Mechanical allodynia was evaluated with an electronically driven Von Frey filament (Dynamic Plantar. Aesthesiorneter, Ugo Basile, Varese, Italy) as previously described (Nieto et al., Pain, 2008, 137(3), 520-31), and cold allodynia was evaluated using the acetone drop method (Nieto et al., Pain, 2008, 137(3), 520-31). […] In addition, in order to study the influence of the sigma 1 receptor in this process the difference in development of allodynia was determined using wild-type mice and sigma 1-receptor knock-out-mice.
Therefore, the cumulative dose was 10 mg/kg per mouse. […]
The response of the animals to the different nociceptive stimuli was tested subsequently during 2-4 weeks, depending on the test (see below), without any additional treatment. Each animal was tested only in one nociceptive model. […] Each animal received only one dose of compound 63 and was tested in only one nociceptive model.
Procedure for assessment of cold allodynis. Cold allodynia was tested as previously described by Nieto et al., Pain, 2008, 137(3), 520-31, by gently touching the plantar skin of the hind paws with an acetone bubble formed with a syringe connected to a thin polyethylene tube. The mice were housed and habituated for 30 min in transparent plastic boxes (7×7×13 cm) with a floor made of wire mesh. After the adaptation period, acetone was applied alternately three times to each paw at intervals of 30 s, and the duration of licking or biting were recorded. A small mirror was placed behind the chambers to allow clear observation of the paws. The time spent licking or biting the paw was recorded by a stopwatch and represented as the cumulative time of licking/biting in the six measurements. Since licking persisting more than 10 s in the experiments was very unusual, a cut-off time of 10 s was used for each trial.
Therefore, the day 10, after the habituation period to the apparatus, baseline latencies were recorded, 30 min later compound 63 or saline was injected s.c. and paw withdrawal latencies were assessed again 60, 120 and 180 minutes after the injection.
(§3) On that day, duration of hind paw licking/biting was recorded immediately before (time 0) and at several times (60, 120 and 180 min) after the injection of compound 63 or saline.
as §3

[3] = tested on: paclitaxel-induced mechanical allodynia; experiment: Electronic Von Frey (Dynamic Plantar Aesthesiometer), paclitaxel-induced mechanical allodynia in mice; format: in vivo, CD-1 mice
Protocol: as §1, §2
Therefore, the cumulative dose was 10 mg/kg per mouse. In the control group the vehicle of paclitaxel was administered following the same schedule.
Compound 63 was dissolved in normal saline just before administration and applied at doses of 8, 16, 32 or 64 mg/kg subcutaneously.
The effects of Compound 63 on paclitaxel-induced neuropathic pain were examined in two different ways. […] The response of the animals to the different nociceptive stimuli was tested subsequently during 2-4 weeks, depending on the test (see below), without any additional treatment. Each animal was tested only in one nociceptive model. To test the effect of compound 63 on the expression of paclitaxel-induced pain, a single compound 63 injection was performed on day 10, a day of maximum expression of mechanical allodynia or cold aliodynia (see figures for details). Each animal received only one dose of compound 63 and was tested in only one nociceptive model.
Procedure for assessment of mechanical allodynia. To assess mechanical allodynia, paw withdrawal thresholds were measured using a Dynamic Plantar Aesthesiometer (Ugo Basile, Italy). The electronic Von Frey device employs a single nonflexible filament which applies a progressively increasing force (from 0 to 10 g) against the plantar surface of the hind paw over a 20 a period. […] The day of the experiment, mice were placed individually in test compartments (9×9×14 cm) with a wire mesh bottom and allowed to acclimatize to them for 2 h. After habituation, each mouse was tested three times alternately in each hind paw.
On that day, paw withdrawal latency was recorded immediately before (time 0) and at several times (30, 60, 90, 120 and 180 min) after the injection of compound 63 or saline.

[4] = tested on: Cisplatin-induced mechanical allodynia; format: in vivo, Wistar rats; settings: rats
Protocol: Male Wistar rats (250-300 g) were obtained from Harlan-lberica (Barcelona, Spain). Upon arrival to our laboratory, animals were stored in standard transparent cages (40×28×25 cm) in environmentally controlled conditions (temperature=20° C,; humidity=60%) with a 12 h light/12 h dark cycle (lights on between 08:00 and 20:00 h). Animals were allowed free access to tap water and standard laboratory rat chow (Harlan-lberica, Barcelona, Spain).
Prior to the experiment, rats were habituated to isolation. Rats received intraperitoneal injections one day per week for 5 weeks of cisplatin (1 mg/kg)+vehicle (control group for acute treatment) or cisplatin (1 mg/kg)+compound 63 (25 mg/kg). The last week (day 36) control group received an acute administration of 64 mg/kg of compound 63.
Mechanical allodynia was assessed before cisplatin administration (basal) and at the end of each experimental week (w1, w2, w3, w4). For the acute evaluation of compound 63 (w5), the mechanical allodynia was assessed 50 minutes after drug administration. On those days, rats were placed individually on an elevated iron mesh in a clear plastic cage and were allowed to adapt to the testing environment for at least 10 min. Habituation to this environment was also performed on the two days before assessment. […] Only robust and immediate withdrawal responses from the stimulus were recorded. […]

[5] = tested on: patients treated with paclitaxel; settings: paclitaxel dose 135 mg/m^2; cited from earlier work
[6] = 0.5% HPMC/Oxaliplatin-treated group, D8
[7] = 0.5% HPMC/Oxaliplatin-treated group, D15
[8] = 0.5% HPMC/Oxaliplatin-treated group, D16
[9] = paclitaxel 2 mg/kg i.p. once daily during 5 days, mice
[10] = paclitaxel 2 mg/kg i.p. during 5 days

For `O=C1[O][Pt]2([NH][C@@H]3CCCC[C@H]3[NH]2)[O]C1=O` [Oxaliplatin, reference compound], the “cumulative cold score (acetone test)” value [1, 6] was 5.0±0.8, the “reaction time of paw withdrawal (acetone test)” value [1, 6] was 14.7 ± 0.9 s and the “cumulative cold score (acetone test)” value [1, 7] was 7.0±1.2. For the same compound, the “reaction time of paw withdrawal (acetone test)” value [1, 7] was 11.5 ± 1.6 s, the “cumulative cold score (acetone test)” value [1, 8] was 6.7±0.9 and the “reaction time of paw withdrawal (acetone test)” value [1, 8] was 11.5 ± 0.9 s. The “decrease in the reaction time of paw withdrawal as compared to the HPMC/distilled water-treated group” value ([1]; D8) was −19%, the “decrease in the reaction time of paw withdrawal as compared to the HPMC/distilled water-treated group” value ([1]; D15) was −37% and the “decrease in the reaction time of paw withdrawal as compared to the HPMC/distilled water-treated group” value ([1]; D16) was −36%.

In the case of `Cc1cc(OCCN2CCOCC2)nn1-c1ccc2ccccc2c1` [Compound 63, 4-{2-[5-Methyl-1-(naphthalen-2-yl)-1H-pyrazol-3-yloxy]ethyl}morpholine], the “response of the animals to acetone, co-administration with paclitaxel-vehicle” value ([2]; 64 mg/kg s.c. 30 min before each paclitaxel-vehicle injection, days 1-5, vs paclitaxel-vehicle + saline) is reported as “did not significantly modify the response of the animals to acetone”, the “response to acetone of control (paclitaxel-vehicle treated) animals” value ([2]; 64 mg/kg s.c. single injection on day 10, paclitaxel-vehicle treated mice) is reported as “did not afex: the response to acetone” and the “development of cold allodynia induced by paclitaxel (acetone test)” value ([2]; co-administration: 64 mg/kg s.c. 30 min before each paclitaxel 2 mg/kg i.p. injection, days 1-5, mice) is reported as “inhibited the development of cold allodynia induced by paclitaxel”. For the same compound, the “expression of paclitaxel-induced cold allodynia (duration of hind paw licking/biting, acetone test)” value ([2]; single s.c. injection 32-128 mg/kg on day 10 after paclitaxel 2 mg/kg i.p. days 1-5, mice, vs saline) was “inhibited the expression of paclitaxel-induced cold allodynia”, the “mechanical response of control (paclitaxel-vehicle treated) animals” value ([3]; 64 mg/kg s.c. single injection on day 10 after first paclitaxel-vehicle injection) was “did not affect the mechanical response” and the “expression of mechanical allodynia induced by paclitaxel (threshold force for hind paw withdrawal)” value ([3]; 64 mg/kg s.c. single injection on day 10 after paclitaxel 2 mg/kg i.p. days 1-5) was “inhibited the expression of mechanical aliodynia induced by paclitaxel”. For the same compound, the “reaction time of paw withdrawal (acetone test), curative treatment” value ([1]; 20 mg/kg i.p. daily D8-D15) was “low effect”, the “cumulative cold score (acetone test), curative treatment” value ([1]; 40 mg/kg i.p. daily D8-D15) was “intermediate effect” and the “reaction time of paw withdrawal (acetone test), curative treatment” value ([1]; 40 mg/kg i.p. daily D8-D15) was “intermediate effect”. For the same compound, the “reaction time of paw withdrawal (acetone test), preventive treatment” value ([1]; 40 mg/kg i.p. twice a day from D-2 to D15, oxaliplatin 3 mg/kg i.p., rats) was “induced a beneficial effect”, the “cumulative cold score (acetone test)” value ([1]; curative, 20 mg/kg i.p., D8) was 4.3±0.6 and the “cumulative cold score (acetone test)” value ([1]; curative, 80 mg/kg i.p. daily D8-D15, D15) was 1.8±0.3. For the same compound, the “reaction time of paw withdrawal (acetone test)” value ([1]; curative, 80 mg/kg i.p. daily D8-D15, D15, oxaliplatin 3 mg/kg i.p., rats) was 17.5 ± 0.5 s, the “reaction time of paw withdrawal (acetone test)” value ([1]; curative, 80 mg/kg i.p. daily D8-D15, D16 (24 h after last dose), oxaliplatin 3 mg/kg i.p., rats) was 15.5 ± 1.0 s and the “cumulative cold score (acetone test)” value ([1]; curative, 80 mg/kg i.p. daily D8-D15, D16, 24 hours after the last injection) was 3.1±0.6. The “reaction time of paw withdrawal (acetone test)” value ([1]; curative, 80 mg/kg i.p. daily from D8, D8, oxaliplatin 3 mg/kg i.p., rats) was 19.1 ± 0.3 s, the “cumulative cold score (acetone test)” value ([1]; curative, 80 mg/kg i.p., D8) was 1.0±0.4 and the “cumulative cold score (acetone test)” value ([1]; preventive, 40 mg/kg i.p. twice a day D-2 to D15, D8) was 2.3±0.6. For the same compound, the “cumulative cold score (acetone test)” value ([1]; preventive, 40 mg/kg i.p. twice a day D-2 to D15, D15) was 3.0±0.6, the “cumulative cold score (acetone test)” value ([1]; preventive, 40 mg/kg i.p. twice a day D-2 to D15, D16) was 3.5±0.7 and the “von Frey pressure response, acute treatment” value ([4]; 64 mg/kg on week 5, 50 minutes before the test, cisplatin 1 mg/kg once a week for 5 weeks) was “reverted the effect induced by cisplatin to basal levels”. The “development of mechanical allodynia, preventive treatment” value ([4]; coadministration of 25 mg/kg twice a day, one day per week, same days as cisplatin 1 mg/kg) was “prevented the development of mechanical allodynia by cisplatin”.

With `CC(=O)O[C@H]1C(=O)[C@@]2(C)[C@H]([C@H](OC(=O)c3ccccc3)[C@]3(O)C[C@H](OC(=O)[C@H](O)[C@@H](NC(=O)c4ccccc4)c4ccccc4)C(C)=C1C3(C)C)[C@]1(OC(C)=O)CO[C@@H]1C[C@@H]2O` [Paclitaxel] the “animals with significantly increased time licking/biting the stimulated paw (paclitaxel-responder animals)” value [2, 9] was 67%, the “paclitaxel-treated animals that did not show cold allodynia” value [2, 9] was 33% and the “animals showing a reduction of the mechanical threshold” value [3, 10] was 96%. The “non-responder animals (mechanical threshold on day 10 not lower than pretreatment)” value [3, 10] was “about 4%”, the “induction of mechanical allodynia (threshold force for paw withdrawal, Von Frey test)” value ([3]; paclitaxel 2 mg/kg i.p. during 5 days, day 10) was “induced mechanical allodynia” and the “patients progressing to dose-limiting neurotoxicity” value [5] was 0%.
